Reference: patent US20120277517A1, “Formulation and Methods for Enhanced Interventional Image-Guided Therapy of Cancer” (The Johns Hopkins University, priority 2011, published 2012)

Tested on: Hep3B cells
Assay: Intratumoral injection with or without AMF hyperthermia in mice with subcutaneous Hep3B tumors
Type: in vivo, mouse
Details: may be attributed to hyperthermia
Source text: In another exemplary experiment, Hep3B cells were implanted by subcutaneous injection of 3×10^6 Hep3B cells suspended in PBS into the right flank of each mouse that was randomly assigned into 2 main groups (heated and unheated) that were further divided into three subgroups. When tumors reached 100 mm^3, these received intratumoral injections of T-C formulation, BNF particles alone, or PBS (3 subgroups). The heated group (9 mice) received AMF hyperthermia. Two mice from each subgroup were euthanized 24 hours following treatment, and the remaining one was euthanized when tumor in the PBS group reached 2000 mm^3.
For AMF exposure, each mouse was placed in a chamber constructed from a standard polypropylene 50-mL conical centrifuge tube that was positioned in the center of the solenoid coil. Prior to AMF therapy, each mouse received intraperitoneal injections of ketamine/xylazine (anesthesia) at an approximate dose of a 200-μL injection. Each mouse was placed in the coil for 30 min and exposed to one of the following AMF amplitudes: 0, 24, or 60 kA/m. […] During AMF exposure, mice were placed into the AMF inductor coil and therefore exposed to maximum magnetic field, corresponding to the measured (by field probe) field. Rectal and tumor temperatures were measured at one-second intervals for each mouse exposed to AMF using fiber optic temperature probes.

degradation of doxorubicin: 7-8%
Structure (SMILES): COc1cccc2c1C(=O)c1c(O)c3c(c(O)c1C2=O)C[C@@](O)(C(=O)CO)C[C@@H]3O[C@H]1C[C@H](N)[C@H](O)[C@H](C)O1 [doxorubicin]
